Consider 16 compounds from US9932314B2, “Pyrazole compounds and their use as T-type calcium channel blockers” (IDORSIA PHARMACEUTICALS LTD, priority 2015, dated 2018).

The target of the assay is T1, voltage-dependent T-type calcium channel subunit alpha-1G (Cav3.2) (Homo sapiens, UniProt O95180).
T1 construct: expressed in transfected cells; host or cells: HEK293
Briefly: FLIPR calcium flux assay, HEK293 cells recombinantly expressing Cav3.2. Type of assay: cell-based. As to conditions: Cav3.2-channel, Fluo-4-AM, 3 min incubation, stimulation with 10 mM CaCl2. On the procedure:
In Vitro Methods—Measurement of Calcium Channel Flux by Means of FLIPR Assays.
HEK293 cells recombinantly expressing either voltage-dependent T-type calcium channel subunit […] (Cav3.2) or voltage-dependent L-type calcium channel subunit alpha-1C (Cav1.2) are assayed for calcium flux using the calcium indicator dye Fluo-4-AM (Molecular Devices) and FLIPR technology (Fluorometric Imaging Plate Reader, Molecular Devices) (Xie X, Van Deusen A L, Vitko I, Babu D A, Davies L A, Huynh N, Cheng H, Yang N, Barrett P Q, Perez-Reyes E. Validation of high throughput screening assays against three subtypes of Ca(v)3 T-type channels using molecular and pharmacologic approaches. Assay and Drug Development Technologies 2007, 5(2), 191-203). The HEK293 cells recombinantly expressing Cav3.2 are maintained in DMEM growth medium (Life Technologies) supplemented with 10% Fetal Bovine Serum (FBS), 100 U/ml penicilin (Life Technologies), 100 μg/ml streptomycin (Life Technologies) and 1 mg/ml G418 (Life Technologies). HEK293 cells recombinantly expressing Cav1.2 are maintained in DMEM growth medium (Life technologies) supplemented with 10% FBS, 0.1 mg/ml G418 (Life Technologies), 0.1 mg/ml hygromycin (Life Technologies) and 40 ug/ml zeocin (Life Technologies).
The seeded plates are incubated overnight at 37° C.
The cells are then washed three times with assay buffer (HBSS 1×; 0.375 g/L NaHCO3; 20 mM Hepes; 1% FBS; pH 7.4) and allowed to rest in 50 μl of wash buffer for 30 minutes.
Stock solutions of test compounds are prepared to a concentration of 10 mM in DMSO. For the Cav3.2 assay, serial dilutions of the compounds are prepared in TEAC buffer (100 mM tetraethylammonium chloride; 20 mM Hepes; 2.5 mM CaCl2; 5 mM KCl; 1 mM MgCl2; 1% FBS; pH 7.2), for the Cav1.2 assay serial dilutions are prepared in assay buffer. […] The compounds are incubated with the cells for 3 minutes and Ca2+ entry is stimulated by adding either CaCl2 to a final concentration of 10 mM (Cav3.2 assay) or by adding KCl to a final concentration of 20 mM (Cav1.2 assay). The kinetics of fluorescence increase are recorded for every well and the area under the fluorescence trace for every compound concentration is used to generate inhibition curves using non-linear regression sigmoidal concentration-response curve analysis with in-house software.
Background: A change in cytosolic calcium serves as a functional read-out for many receptors and channels.

One may read the IC50 as the point on the concentration scale where inhibition reaches its midpoint.

T1 sequence (O95180 whole entry): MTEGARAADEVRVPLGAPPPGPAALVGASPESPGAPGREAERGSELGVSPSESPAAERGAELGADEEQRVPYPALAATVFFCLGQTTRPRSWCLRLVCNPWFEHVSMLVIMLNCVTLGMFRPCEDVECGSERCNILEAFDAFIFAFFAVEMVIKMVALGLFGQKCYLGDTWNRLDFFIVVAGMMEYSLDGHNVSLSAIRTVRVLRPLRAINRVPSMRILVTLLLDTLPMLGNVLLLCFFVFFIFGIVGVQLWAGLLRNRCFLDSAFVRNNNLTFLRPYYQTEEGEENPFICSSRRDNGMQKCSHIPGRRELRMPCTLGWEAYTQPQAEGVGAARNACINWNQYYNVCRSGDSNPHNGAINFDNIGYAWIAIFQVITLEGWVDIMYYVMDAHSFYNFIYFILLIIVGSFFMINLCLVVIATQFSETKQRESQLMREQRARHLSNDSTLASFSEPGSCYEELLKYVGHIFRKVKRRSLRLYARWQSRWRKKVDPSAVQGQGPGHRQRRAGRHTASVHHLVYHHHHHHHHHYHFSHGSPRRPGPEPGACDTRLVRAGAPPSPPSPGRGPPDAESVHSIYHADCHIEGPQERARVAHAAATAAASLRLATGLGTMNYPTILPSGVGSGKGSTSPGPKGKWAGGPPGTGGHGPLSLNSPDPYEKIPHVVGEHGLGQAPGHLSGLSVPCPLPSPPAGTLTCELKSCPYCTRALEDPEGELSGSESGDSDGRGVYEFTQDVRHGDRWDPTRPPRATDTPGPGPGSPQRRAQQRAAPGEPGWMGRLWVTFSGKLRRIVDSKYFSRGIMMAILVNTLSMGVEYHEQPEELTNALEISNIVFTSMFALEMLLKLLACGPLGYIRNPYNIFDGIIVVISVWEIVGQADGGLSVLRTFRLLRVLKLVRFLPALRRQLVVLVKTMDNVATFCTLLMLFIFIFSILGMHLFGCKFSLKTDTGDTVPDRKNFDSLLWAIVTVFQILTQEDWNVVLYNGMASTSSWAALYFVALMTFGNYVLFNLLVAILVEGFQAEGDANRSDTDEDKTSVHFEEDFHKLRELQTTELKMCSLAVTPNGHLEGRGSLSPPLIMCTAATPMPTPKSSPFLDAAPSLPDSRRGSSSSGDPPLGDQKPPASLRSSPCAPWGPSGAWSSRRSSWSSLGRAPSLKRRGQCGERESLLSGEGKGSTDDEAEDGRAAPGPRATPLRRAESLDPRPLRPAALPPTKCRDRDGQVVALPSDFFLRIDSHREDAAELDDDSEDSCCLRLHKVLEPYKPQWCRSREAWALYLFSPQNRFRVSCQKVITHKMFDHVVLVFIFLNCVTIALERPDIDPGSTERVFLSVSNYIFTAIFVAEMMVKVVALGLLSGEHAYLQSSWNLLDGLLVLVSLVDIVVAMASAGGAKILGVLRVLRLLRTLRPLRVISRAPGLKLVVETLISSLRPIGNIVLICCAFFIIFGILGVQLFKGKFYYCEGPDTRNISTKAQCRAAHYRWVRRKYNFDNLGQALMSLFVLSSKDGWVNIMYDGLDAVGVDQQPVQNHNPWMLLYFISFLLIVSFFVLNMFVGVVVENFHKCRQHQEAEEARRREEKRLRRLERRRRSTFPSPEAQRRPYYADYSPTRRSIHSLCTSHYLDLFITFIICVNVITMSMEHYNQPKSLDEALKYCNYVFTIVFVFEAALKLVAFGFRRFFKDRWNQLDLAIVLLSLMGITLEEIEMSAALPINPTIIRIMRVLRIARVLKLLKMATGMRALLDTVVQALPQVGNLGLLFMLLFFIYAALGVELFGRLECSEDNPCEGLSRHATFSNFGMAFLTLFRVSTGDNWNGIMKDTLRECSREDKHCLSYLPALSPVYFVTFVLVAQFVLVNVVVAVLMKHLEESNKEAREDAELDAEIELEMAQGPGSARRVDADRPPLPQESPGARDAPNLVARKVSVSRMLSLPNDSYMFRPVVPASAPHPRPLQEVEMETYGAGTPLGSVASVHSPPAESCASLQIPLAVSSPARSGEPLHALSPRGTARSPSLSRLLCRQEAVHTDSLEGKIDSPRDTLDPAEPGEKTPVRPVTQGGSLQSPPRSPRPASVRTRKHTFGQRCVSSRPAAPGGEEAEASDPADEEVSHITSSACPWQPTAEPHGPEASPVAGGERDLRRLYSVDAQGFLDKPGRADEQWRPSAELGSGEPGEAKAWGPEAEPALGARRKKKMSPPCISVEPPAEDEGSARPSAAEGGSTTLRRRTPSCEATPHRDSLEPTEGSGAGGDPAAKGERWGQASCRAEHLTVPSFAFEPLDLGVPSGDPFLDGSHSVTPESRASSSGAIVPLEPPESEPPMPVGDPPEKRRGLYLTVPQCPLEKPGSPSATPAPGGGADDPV

On to `COC(C)c1ccc(CC(=O)Nc2ccn(Cc3ccc(F)cc3)n2)cc1` (racemic) [Example 201, rac-N-[1-(4-Fluoro-benzyl)-1H-pyrazol-3-yl]-2-[4-(1-methoxy-ethyl)-phenyl]-acetamide], for which the IC50 was found to be 30 nM.

As for `COC(C)c1ccc(CC(=O)Nc2ccn(Cc3ccc(F)c(F)c3)n2)cc1` (racemic) [Example 202, rac-N-[1-(3,4-Difluoro-benzyl)-1H-pyrazol-3-yl]-2-[4-(1-methoxy-ethyl)-phenyl]-acetamide], the IC50 came out at 16 nM.

With `COC(C)c1ccc(CC(=O)Nc2ccn(Cc3ccc(C#N)cn3)n2)cc1` (racemic) [Example 203, rac-N-[1-(5-Cyano-pyridin-2-ylmethyl)-1H-pyrazol-3-yl]-2-[4-(1-methoxy-ethyl)-phenyl]acetamide], the IC50 came out at 1260 nM.

On to `COC(C)c1ccc(CC(=O)Nc2ccn(Cc3ccc(F)c(C#N)c3)n2)cc1` (racemic) [Example 319, rac-N-[1-(3-Cyano-4-fluoro-benzyl)-1H-pyrazol-3-yl]-2-[4-(1-methoxy-ethyl)-phenyl]-acetamide], for which the IC50 came to 66 nM.

On to `COC(C)c1ccc(CC(=O)Nc2ccn(Cc3ccc(C#N)cc3)n2)cc1` (racemic) [Example 320, rac-N-[1-(4-Cyano-benzyl)-1H-pyrazol-3-yl]-2-[4-(1-methoxy-ethyl)-phenyl]-acetamide], for which the IC50 turned out to be 99 nM.

`N#Cc1ccc(Cn2ccc(NC(=O)Cc3ccc([C@@H]4C[C@H]4C(F)(F)F)cc3)n2)nc1` (racemic) [Example 383, rac-N-[1-(5-Cyano-pyridin-2-ylmethyl)-1H-pyrazol-3-yl]-2-[4-((1R*,2R*)-2-trifluoromethyl-cyclopropyl)-phenyl]-acetamide]: the IC50 amounted to 36 nM.

Regarding `CC1COc2cc(CC(=O)Nc3ccn(Cc4ccc(C#N)cn4)n3)ccc2C1` (racemic) [Example 388, rac-N-[1-(5-Cyano-pyridin-2-ylmethyl)-1H-pyrazol-3-yl]-2-(3-methyl-chroman-7-yl)-acetamide], the IC50 turned out to be 30 nM.

On to `CO[C@H](C)c1ccc(CC(=O)Nc2ccn(Cc3ccc(F)c(F)c3)n2)cc1` (single isomer, unassigned) [Example 232], for which the IC50 worked out at 5.8 nM.

For `CO[C@@H](C)c1ccc(CC(=O)Nc2ccn(Cc3ccc(F)c(F)c3)n2)cc1` (single isomer, unassigned) [Example 233], the IC50 turned out to be 8.1 nM.

In the case of `CC(C)c1ccc(CC(=O)Nc2ccn(Cc3ccc(Cl)cc3)n2)cc1` [Example 1, N-[1-(4-Chloro-benzyl)-1H-pyrazol-3-yl]-2-(4-isopropyl-phenyl)-acetamide], the IC50 came to 14 nM.

In the case of `CN(C)c1ccc(CC(=O)Nc2ccn(Cc3ccc(F)cc3)n2)cn1` [Example 4, 2-(6-Dimethylamino-pyridin-3-yl)-N-[1-(4-fluoro-benzyl)-1H-pyrazol-3-yl]-acetamide], the IC50 worked out at 82 nM.

For `CN(C)c1ccc(CC(=O)Nc2ccn(Cc3ccc(Cl)cc3)n2)cn1` [Example 5, N-[1-(4-Chloro-benzyl)-1H-pyrazol-3-yl]-2-(6-dimethylamino-pyridin-3-yl)-acetamide], the IC50 was found to be 20 nM.

As to `CC(C)c1ccc(CC(=O)Nc2ccn(Cc3ccc(F)cc3)n2)cc1` [Example 6, N-[1-(4-Fluoro-benzyl)-1H-pyrazol-3-yl]-2-(4-isopropyl-phenyl)-acetamide], the IC50 came out at 6.6 nM.

Take `COc1ccc(Cn2ccc(NC(=O)Cc3ccc(C(C)C)cc3)n2)cc1` [Example 7, 2-(4-Isopropyl-phenyl)-N-[1-(4-methoxy-benzyl)-1H-pyrazol-3-yl]-acetamide]: the IC50 was determined as 7.9 nM.

For the compound `Cc1ccc(Cn2ccc(NC(=O)Cc3ccc(C(C)C)cc3)n2)cc1` [Example 9, 2-(4-Isopropyl-phenyl)-N-[1-(4-methyl-benzyl)-1H-pyrazol-3-yl]-acetamide], the IC50 amounted to 12 nM.

With `CC(C)c1ccc(CC(=O)Nc2ccn(Cc3ccc(C#N)cc3)n2)cc1` [Example 11, N-[1-(4-Cyano-benzyl)-1H-pyrazol-3-yl]-2-(4-isopropyl-phenyl)-acetamide], the IC50 worked out at 5.4 nM.
